According to patent US9809625B2, “Immunomodulators” (BRISTOL-MYERS SQUIBB COMPANY, priority 2015, dated 2017):
pIC50: −log10 of the molar value. Bridge positions count the residues as written; N and C are the ends. Square brackets hold non-standard residues; d marks the D form. Peptide text beside a SMILES is read from it. * marks the point of attachment. ξ: configuration not given here. Piperazinyl(4-Ph) = c1ccc(N2CCN(*)CC2)cc1; Hyp = O=C(O)[C@@H]1C[C@@H](O)CN1; ξW = NC(Cc1c[nH]c2ccccc12)C(=O)O; NMeNle = CCCC[C@H](NC)C(=O)O; X5 = Clc1ccc(C2CCN(*)CC2)cc1; NMeA = CN[C@@H](C)C(=O)O; Dap = NC[C@H](N)C(=O)O; X13 = CS(=O)(=O)CCN*; Sar = CNCC(=O)O

Target: T1, PD-1-Ig binding to PD-L1-TVMV-His (PD-L1-His) (Homo sapiens, UniProt Q9NZQ7)
T1 construct: hPDL1(19-239)-TVMV-His; TVMV protease cleavage site (C); made in house; host or cells: HEK293T
T1 sequence (Q9NZQ7 with tags, fused parts or gaps): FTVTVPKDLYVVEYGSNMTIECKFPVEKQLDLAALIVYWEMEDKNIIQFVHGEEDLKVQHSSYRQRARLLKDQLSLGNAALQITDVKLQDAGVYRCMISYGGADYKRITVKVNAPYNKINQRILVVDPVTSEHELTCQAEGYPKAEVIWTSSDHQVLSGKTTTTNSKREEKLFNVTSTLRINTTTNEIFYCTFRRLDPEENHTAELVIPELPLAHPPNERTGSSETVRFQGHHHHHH
Assay: PD-1/PD-L1 Homogenous Time-Resolved Fluorescence (HTRF) binding assay
Settings: PD-1-Ig (20 nM)/PD-L1-His (10 nM), range classes

pIC50	Structure (SMILES)
7.22 to 8.00	CCCC[C@H]1C(=O)N(C)[C@@H](CCCC)C(=O)N[C@@H](CC(C)C)C(=O)N[C@H](C(=O)NCC(=O)N2CCC(c3ccc(Cl)cc3)CC2)CSCC(=O)N[C@@H](Cc2ccc(O)cc2)C(=O)N(C)[C@@H](C)C(=O)N[C@@H](CC(N)=O)C(=O)N2CCC[C@H]2C(=O)N[C@@H](CN)C(=O)N[C@@H](CC(C)C)C(=O)N2C[C@H](O)C[C@H]2C(=O)N[C@@H](Cc2c[nH]c3ccccc23)C(=O)NCC(=O)NC(Cc2c[nH]c3ccccc23)C(=O)N1C (stereo partly shown) [Example 13115] ({CH2CO}-Y[NMeA]NP[Dap]L[Hyp]WG[ξW][NMeNle][NMeNle]LCG-X5; thioether N-14)
7.22 to 8.00	CCCC[C@H]1C(=O)N(C)[C@@H](CCCC)C(=O)N[C@@H](CC(C)C)C(=O)N[C@H](C(=O)NCC(=O)NCCS(C)(=O)=O)CSCC(=O)N[C@@H](Cc2ccc(O)cc2)C(=O)N(C)[C@@H](C)C(=O)N[C@@H](CC(N)=O)C(=O)N2CCC[C@H]2C(=O)N[C@@H](CN)C(=O)N[C@@H](CC(C)C)C(=O)N2C[C@H](O)C[C@H]2C(=O)N[C@@H](Cc2c[nH]c3ccccc23)C(=O)NCC(=O)NC(Cc2c[nH]c3ccccc23)C(=O)N1C (stereo partly shown) [Example 13116] ({CH2CO}-Y[NMeA]NP[Dap]L[Hyp]WG[ξW][NMeNle][NMeNle]LCG-X13; thioether N-14)
8.00 to 8.40	CCCC[C@H]1C(=O)N(C)[C@@H](CCCC)C(=O)N[C@@H](CC(C)C)C(=O)N[C@H](C(=O)NCC(=O)N2CCN(c3ccccc3)CC2)CSCC(=O)N[C@@H](Cc2ccc(O)cc2)C(=O)N(C)[C@@H](C)C(=O)N[C@@H](CC(N)=O)C(=O)N2CCC[C@H]2C(=O)N[C@@H](CN)C(=O)N[C@@H](CC(C)C)C(=O)N2C[C@H](O)C[C@H]2C(=O)N[C@@H](Cc2c[nH]c3ccccc23)C(=O)NCC(=O)NC(Cc2c[nH]c3ccccc23)C(=O)N1C (stereo partly shown) [Example 13117] ({CH2CO}-Y[NMeA]NP[Dap]L[Hyp]WG[ξW][NMeNle][NMeNle]LCG-{Piperazinyl(4-Ph)}; thioether N-14)
7.22 to 8.00	CCCC[C@H]1C(=O)N(C)[C@@H](CCCC)C(=O)N[C@@H](CC(C)C)C(=O)N[C@H](C(=O)N(C)CC(N)=O)CSCC(=O)N[C@@H](Cc2ccc(O)cc2)C(=O)N(C)[C@@H](C)C(=O)N[C@@H](CC(N)=O)C(=O)N2CCC[C@H]2C(=O)N[C@@H](CN)C(=O)N[C@@H](CC(C)C)C(=O)N2C[C@H](O)C[C@H]2C(=O)N[C@@H](Cc2c[nH]c3ccccc23)C(=O)NCC(=O)N[C@@H](Cc2c[nH]c3ccccc23)C(=O)N1C [Example 13119] ({CH2CO}-Y[NMeA]NP[Dap]L[Hyp]WGW[NMeNle][NMeNle]LC[Sar]-NH2; thioether N-14)
